Data set [1] has as its system Plasmodium falciparum. Kind of data set: NOVARTIS: Inhibition of Plasmodium falciparum W2 (drug-resistant) proliferation in erythrocyte-based infection assay. In kind it is functional, organism-based. The following applies: Plasmodium falciparum, W2; read-out: EC50.
Data set [2] deals with Plasmodium falciparum. Kind of data set: NOVARTIS: Inhibition of Plasmodium falciparum 3D7 (drug-susceptible) proliferation in erythrocyte-based infection assay. In kind it is functional, organism-based. To be noted: Plasmodium falciparum, 3D7.
A short description of data set [3]: NOVARTIS: Cytotoxicity against human hepatocellular carcinoma cell line (Huh7). In kind it is toxicity, cell-based, Huh-7. The following applies: Huh7 cells (hepatocellular carcinoma cell line).

A word on the EC50: it is the concentration that produces a half-maximal response. One may read the CC50 as the concentration giving 50% cytotoxicity. Low values mean harm at low concentration, high ones better tolerance by the cells.

The structures appear in SMILES notation. Some results are limits rather than exact numbers.

`CCN(CC)S(=O)(=O)c1ccc(C(=O)NCc2nnc(SCC(=O)N3CCc4ccccc43)n2-c2ccccc2OC)cc1`: the EC50 in the data set with Plasmodium falciparum [1] was 26.7 nM; in the data set with Plasmodium falciparum [2], above 1250 nM. Moreover, the 50% cytotoxic concentration (CC50) in data set [3] was above 10000 nM.
For `COc1ccc(C(c2ccc(N(C)C)cc2)c2ccc(N(C)C)cc2)cc1` the same measures were 277 nM, 353 nM and above 100000 nM.
For the compound `COc1cccc(C(=O)NCc2nnc(S)n2-c2ccc(Cl)c(Cl)c2)c1`, the EC50 with Plasmodium falciparum [1] stood at 273 nM; with Plasmodium falciparum [2] it was 275 nM. The cytotoxic concentration (CC50) in data set [3] is above 100000 nM.
For `O=C(CCn1c(=S)oc2ccccc21)N1CCN(c2ccccc2)CC1` the same measures were 26.7 nM, above 1250 nM and above 10000 nM.
As for `CCc1ccccc1NC(=O)C1c2ccccc2C(=O)N(CC(C)C)C1c1cccs1` (centres undefined), the EC50 with Plasmodium falciparum [1] is 270 nM; in the data set on Plasmodium falciparum [2] it was 364 nM. The compound further registered a CC50 in data set [3] above 97200 nM.
In the same order, the values of `COc1ccc(NC2=C(N3CCCCC3)C(=O)c3ccccc3C2=O)cc1` are 35 nM, 33.1 nM and 12600 nM.
`COc1ccc(C2CC(=O)C3=C(C2)NC(C)=C(C(=O)OC2CCCCC2)C3c2cccc(C)c2)cc1OC` (centres undefined): the concentration giving a half-maximal response (EC50) came to 281 nM in the data set with Plasmodium falciparum [1] and 837 nM in the data set on Plasmodium falciparum [2]. The CC50 in data set [3] is above 100000 nM.
In the same order, the values of `CCOC(=O)c1cnc2ccc(Cl)cc2c1NCCCN(C)C` are 135 nM, 826 nM and 48200 nM.
In the same order, the values of `COc1ccc(C2CC(=O)C3=C(C2)NC(C)=C(C(=O)OC(C)C)C3c2cccc(Br)c2)cc1OC` (centres undefined) are 41.6 nM, 234 nM and 14700 nM.
For `COc1cc2c(OC3OCC(OC)C(OC)C3O)c3c(c(-c4ccc5c(c4)OCO5)c2cc1OC)C(=O)OC3` (centres undefined) the same measures were 28.3 nM, 81.7 nM and above 10000 nM.
With `O=C(Nc1ccc(C(=O)Nc2ccc(C3=NCCCN3)cc2)cc1)Nc1ccc(C2=NCCCN2)cc1`, the EC50 is 20.4 nM with Plasmodium falciparum [1] and 34.4 nM with Plasmodium falciparum [2]. The CC50 in data set [3] is above 7280 nM.
`O=C(NC1CCN(Cc2ccccc2)CC1)c1cc(-c2ccc(F)cc2)cc(-n2cnnn2)c1`: the EC50 in the data set on Plasmodium falciparum [1] and in the data set on Plasmodium falciparum [2] was 126 nM throughout. The compound also had a CC50 in data set [3] of 45000 nM.
In the case of `COc1ccc(-c2cc(C(F)(F)F)n3ncc(C(=O)Nc4cccc(Cl)c4Cl)c3n2)cc1OC`, the EC50 with Plasmodium falciparum [1] came out at 275 nM; in the data set on Plasmodium falciparum [2], 2610 nM. The compound also gave a CC50 in data set [3] above 100000 nM.
In the same order, the values of `Oc1ccc(-c2ccc3c(c2)OCO3)cc1CNCC1CC2C=CC1C21CC1` (centres undefined) are 274 nM, 1110 nM and above 100000 nM.
For `O=C(CSc1nc(-c2ccccc2Cl)ns1)Nc1ccc2c(c1)OCCO2`, the 50% effective concentration (EC50) in the data set with Plasmodium falciparum [1] was 273 nM; in the data set on Plasmodium falciparum [2], 593 nM. The same compound returned a CC50 in data set [3] above 100000 nM.
In the same order, the values of `CCN(CC)c1ccc(C=NNC(=O)c2ccc(Nc3nc(-c4ccccc4)cs3)cc2)c(O)c1` are 54.8 nM, 151 nM and 20100 nM.
In the same order, the values of `CC(C)(C)CC(C)(C)c1ccc(O)c(CN2CCN(CCC#N)CC2)c1` are 272 nM, 1290 nM and above 100000 nM.
Regarding `CCn1c(CNc2ccc(Cl)cc2)nnc1SCC(=O)Nc1cccc(C)c1C`, the EC50 with Plasmodium falciparum [1] was 26.7 nM; in the data set with Plasmodium falciparum [2] it was above 1250 nM. The same compound registered a CC50 in data set [3] above 10000 nM.
In the same order, the values of `C=CCNC(=O)c1ccc2c(c1)N=C(CC(C)c1ccccc1)N(CCCN1CCCC1=O)C2` (centres undefined) are 26.7 nM, above 1250 nM and above 10000 nM.
Consider `COc1ccc(CNC2CCN(Cc3ccccc3)CC2)cc1OCc1ccccc1`, for which the EC50 is 27.9 nM in the data set on Plasmodium falciparum [1] and 1030 nM in the data set on Plasmodium falciparum [2]. For the same compound, the CC50 in data set [3] is above 10000 nM.
In the same order, the values of `CCCn1c(SCC(=O)N2c3ccccc3CC2C)nc2c1c(=O)n(C)c(=O)n2C` (centres undefined) are below 27.1 nM, above 1250 nM and above 10000 nM.
Regarding `N=C(NN=Cc1ccc([N+](=O)[O-])cc1)NN=Cc1ccc([N+](=O)[O-])cc1`, the EC50 was 271 nM in the data set on Plasmodium falciparum [1] and 280 nM in the data set with Plasmodium falciparum [2]. Further, the half-maximal cytotoxic concentration (CC50) in data set [3] is above 100000 nM.
Consider `FC(F)(F)c1cccc(NC(=S)N2CCSC2c2ccc(Br)cc2)c1` (centres undefined), for which the EC50 in the data set on Plasmodium falciparum [1] was 116 nM; in the data set with Plasmodium falciparum [2], 217 nM. Further, in data set [3], the midpoint of cytotoxicity, the CC50, lay at 43300 nM.
Regarding `Cc1ccccc1OCc1nnc(SCC(=O)Nc2ccc([N+](=O)[O-])cc2)n1C`, the values for the EC50 with Plasmodium falciparum [1] and with Plasmodium falciparum [2] were 26.7 nM and above 1250 nM, respectively. This compound came in with a CC50 in data set [3] above 10000 nM.
For `CCn1c(SCC(=O)Nc2cccc(C)c2)nnc1-c1ccccc1` the same measures were 26.7 nM, above 1250 nM and above 10000 nM.
For `CCN(CC)C(=O)c1cn(C2CCN(Cc3ccco3)CC2)nn1` the same measures were 26.7 nM, above 1250 nM and above 10000 nM.
In the same order, the values of `COc1ccc(-c2nc3ccccc3n2C2CCN(Cc3ccc(C)o3)CC2)cc1OC` are 26.7 nM, above 1250 nM and above 10000 nM.
Regarding `CC(C)CC1=Nc2cc(C(=O)NCc3ccccc3)ccc2CN1Cc1cccnc1`, the EC50 in the data set on Plasmodium falciparum [1] is 26.7 nM; in the data set on Plasmodium falciparum [2], above 1250 nM. Further, in data set [3], the cytotoxic concentration (CC50) is above 10000 nM.
With `CCOc1cccc(C2=Nc3cc(C(=O)NC(C)C)ccc3CN2CC2CCCCC2)c1`, the EC50 is 26.7 nM in the data set on Plasmodium falciparum [1] and above 1250 nM in the data set with Plasmodium falciparum [2]. For the same compound, the CC50 in data set [3] is above 10000 nM.
For `COc1cccc(C(=O)NC(c2ccc(Cl)cc2)c2cc(Cl)c3cccnc3c2O)c1` (centres undefined), the EC50 was determined as 268 nM in the data set with Plasmodium falciparum [1] and 2310 nM with Plasmodium falciparum [2]. This compound also registered a 50% cytotoxic concentration (CC50) in data set [3] above 100000 nM.
For `CCC(CC)CN1CCC(O)(c2ccc3oc(C(=O)Nc4ccc5c(c4)OCO5)cc3c2)CC1` the same measures were 268 nM, 246 nM and above 100000 nM.
In the same order, the values of `O=C(ON(C(=O)c1ccc(F)cc1)C1C2CC3CC(C2)CC1C3)c1ccc(F)cc1` (centres undefined) are 26.7 nM, above 1250 nM and above 10000 nM.
In the same order, the values of `CCN(CC)Cc1cc2ccc(C)cc2n(CC(=O)OC)c1=O` are 26.7 nM, above 1250 nM and above 10000 nM.
Turning to `CC(=O)C(=NNc1cc(C(F)(F)F)cc(C(F)(F)F)c1)C(C)=O`, the values for the EC50 in the data set with Plasmodium falciparum [1] and in the data set on Plasmodium falciparum [2] were 26.7 nM and above 1250 nM, respectively. The same compound displayed a CC50 in data set [3] above 10000 nM.
Turning to `Cc1ccc(Cn2c(N3CCC(C(=O)NCc4cccs4)CC3)nc3ccccc32)cc1`, the concentration giving a half-maximal response (EC50) with Plasmodium falciparum [1] turned out to be 271 nM; in the data set with Plasmodium falciparum [2], 529 nM. Besides, the CC50 in data set [3] is above 100000 nM.
For `COc1ccc(C2=C(Nc3ccc(C)c(C)c3)c3ccccc3C2=O)cc1` the same measures were 281 nM, 297 nM and above 100000 nM.
In the same order, the values of `CCc1c(C(C)S(=O)(=O)c2ccc(C)cc2)[nH]c(=O)n1-c1ccc(OC(F)(F)F)cc1` (centres undefined) are 16.2 nM, 47.8 nM and 5750 nM.
In the case of `Cc1ccc(NC(=O)c2c(I)cnn2C)cc1[N+](=O)[O-]`, the EC50 worked out at 280 nM in the data set on Plasmodium falciparum [1] and 192 nM with Plasmodium falciparum [2]. In data set [3], this compound showed a CC50 above 100000 nM.
In the same order, the values of `Clc1ccc2c(c1)CN(C1CCCCC1)CO2` are 200 nM, 2300 nM and 71000 nM.
On to `Cc1ccccc1Cc1c(C)nc2c(C#N)c(C)nn2c1C`, for which the results for the EC50 in the data set on Plasmodium falciparum [1] and in the data set with Plasmodium falciparum [2] were 273 nM and 282 nM, respectively. In addition, in data set [3], the half-maximal cytotoxic concentration (CC50) was above 100000 nM.
For `CCOc1cc(C2C(C(=O)OC)=CNC=C2C(=O)OC)cc(Br)c1OCC` the same measures were 277 nM, 388 nM and above 100000 nM.
In the same order, the values of `O=C(CS(=O)(=O)c1ccc(C(F)(F)F)cn1)NNS(=O)(=O)c1ccc(Cl)cc1` are 26.7 nM, above 1340 nM and above 10000 nM.
As for `Cc1ccccc1CN1CCN(C/C=C/c2ccccc2)CCC1=O`, the EC50 was 26.7 nM in the data set on Plasmodium falciparum [1] and above 1250 nM with Plasmodium falciparum [2]. The same compound had a CC50 in data set [3] above 10000 nM.
With `CCOC(=O)C1=C(c2ccccc2)N=c2sc(=Cc3ccccc3O)c(=O)n2C1c1c(OC)ccc2ccccc12` (centres undefined), the EC50 is 271 nM in the data set with Plasmodium falciparum [1] and 2320 nM with Plasmodium falciparum [2]. In addition, the 50% cytotoxic concentration (CC50) in data set [3] was above 100000 nM.
For `CCC(c1nc2ccccc2c(=O)n1-c1ccc(Cl)cc1)N(Cc1ccccc1)C(=O)Nc1c(C(C)C)cccc1C(C)C` (centres undefined) the same measures were 26.7 nM, above 1420 nM and above 10000 nM.
On to `COc1ccc(Cl)cc1NC(=O)C1c2ccccc2C(=O)N(CC(C)C)C1c1cccs1` (centres undefined), for which the EC50 in the data set with Plasmodium falciparum [1] was determined as 272 nM; in the data set with Plasmodium falciparum [2] it was 837 nM. This compound also gave a CC50 in data set [3] above 100000 nM.
In the same order, the values of `CC(C)c1cccc(C(C)C)c1NC(=O)N(Cc1ccccc1)C(C)c1nc2ccccc2c(=O)n1-c1ccc(Br)cc1` (centres undefined) are 28 nM, 1320 nM and above 10000 nM.
For the compound `O=C(Nc1cccc(OC(=O)c2ccc([N+](=O)[O-])cc2)c1)c1ccc([N+](=O)[O-])cc1`, the EC50 in the data set with Plasmodium falciparum [1] was 270 nM; in the data set on Plasmodium falciparum [2] it was above 12500 nM. This compound also gave a cytotoxic concentration (CC50) in data set [3] above 100000 nM.
Consider `CCN(CC)C(=O)c1cn(C2CCN(C(=O)CCc3cccc(OC)c3)CC2)nn1`, for which the EC50 with Plasmodium falciparum [1] was 26.7 nM; with Plasmodium falciparum [2], above 1250 nM. The compound also showed a CC50 in data set [3] above 10000 nM.
For `CC(=O)N1c2ccccc2NC2=C(C(=O)CCC2)C1c1ccc([N+](=O)[O-])cc1` (centres undefined), the values for the EC50 with Plasmodium falciparum [1] and in the data set on Plasmodium falciparum [2] were 26.7 nM and above 1250 nM, respectively. This compound also came in with a CC50 in data set [3] above 10000 nM.
In the case of `CCn1c(CSc2nc(C)cc(C)n2)nnc1SCC(N)=O`, the EC50 with Plasmodium falciparum [1] is 26.7 nM; in the data set with Plasmodium falciparum [2], above 1250 nM. In data set [3], this compound displayed a cytotoxic concentration (CC50) above 10000 nM.
Regarding `CC(=O)N(C1=C(N2CCCC2)C(=O)c2ccccc2C1=O)c1ccccc1C`, the EC50 in the data set on Plasmodium falciparum [1] was found to be 31.9 nM; in the data set with Plasmodium falciparum [2] it was 83.9 nM. For the same compound, in data set [3], it took 11500 nM to reach half-maximal cytotoxicity (CC50).
For `CCCCNCCN1CCN(c2ccc(OC)cc2)C[C@@H]1c1ccccc1` the same measures were 26.7 nM, above 1280 nM and above 10000 nM.

The values above are taken from ChEMBL document CHEMBL1156829 (Proc Natl Acad Sci U S A, 2008).
